Experimental data: US11607557B2, “Devices and systems for treating pain based on light therapy” (Arizona Board of Regents on Behalf of the University of …, priority 2016, dated 2023)
Entries after “also recorded” stand apart in the source; their conditions may differ.

Legend:
[1] = system: green LED-induced antinociception; assay: Paw withdrawal latency (Hargreaves) after antagonists in green LED exposed naïve rats; format: in vivo, rat
Text: Pathogen-free, adult male and female Sprague-Dawley as well as male Long Evans rats (weight at testing 250-350 g; Harlan-Sprague-Dawley, Indianapolis, Ind.) were housed in a climate-controlled room on a 12-h light/dark cycle and were allowed to have food and water ad libitum. All procedures were approved by the University of Arizona Animal Care and Use Committee and conform to the guidelines for the use of laboratory animals of the National Institutes of Health (publication no, 80-23, 1966). All behavioral experiments were conducted by experimenters blinded to the treatment conditions.
All visible spectrum LED flex strips were purchased from ledsupply.com (VT, USA). The specification of the LED were: (i) #LS-AC60-6-BL, 472 nanometer wavelength (i.e., blue), 8 watts, 120 Volts, 120 degree beam angle; (ii) #LS-AC60-6-GR, 525 nanometer wavelength (i.e., green), 8 watts, 120 Volts, 120 degree beam angle; and (iii) #LS-AC60-66-WH, white, 9.6 watts, 120 Volts, 120 degree beam angle. LED strips were affixed to the outside of clear plastic cages that housed the rats so as to avoid the strips from being chewed. Rats were exposed to the various LED in these cages with full access to food and water in a dark room devoid of any other source of light. Following behavioral assessment, the rats were returned to their cages for additional LED exposure. At the end of daily testing, the rats were returned to their regular animal room where they were exposed to regular room light (regular florescent bulbs). A lux meter (Tondaj LX1010B, Amazon.com) was used to determine the illuminance and luminous emittance of the LED strips.
(§1) The method of Hargreaves et al. was used. Rats were acclimated within Plexiglas enclosures on a clear glass plate maintained at 30° C. A radiant heat source (high-intensity projector lamp) was focused onto the plantar surface of the hind paw. When the paw was withdrawn, a motion detector halted the stimulus and a timer. A maximal cutoff of 33.5 sec was used to prevent tissue damage.
For intrathecal drug administration, rats were chronically implanted with catheters as described by Yaksh and Rudy. Rats were anesthetized with isoflurane and placed in a stereotactic device. The occipital muscles were separated from their occipital insertion and retracted caudally to expose the cisternal membrane at the base of the skull. Polyethylene tubing was passed caudally from the cisterna magna to the level of the lumbar enlargement. Animals were allowed to recover and were examined for evidence of neurologic injury. Animals with evidence of neuromuscular deficits were excluded.
The antinociceptive effects of green LED indicates a possible involvement of endogenous mediators linked to pain, such as opioids and cannabinoids. To test this hypothesis naïve rats exposed to green LED for eight hours daily for five days were administered antagonists and then PWLs were measured 20-30 minutes later.
Thus, to elucidate the role of die adrenergic system, several adrenergic receptors antagonists were tested. […] Additionally, rats exposed to green LED maintained regular grooming behaviors, which is in contrast to diminished grooming observed in stressed rats.

[2] = calcium indicator, λex 340, 380 nm; cited from earlier work
[3] = system: rostral ventromedial medulla (RVM); assay: Lidocaine microinjection into the RVM, paw withdrawal latency in green LED exposed rats; format: in vivo, rat; conditions: 2% lidocaine microinjected into the RVM of naïve rats exposed to green LED
Protocol: as §1
Rats received a bilateral guide cannula (26 GA, #C235-1.2 mm, Plastics One Inc.) directed to the RVM. The cannula was placed at: −11.0 from bregma, −7.5 mm from the dura and 0.6 mm on either side of the midline. Injections were made by expelling 0.5 μl through an injection cannula protruding 1 mm beyond the tip of the guide. Cannula placement was confirmed with 0.5 μl Evans Blue injected into both sides of the cannula and microscopic examination of medullary sections. Acute single injections into the RVM were performed by inserting an injector (Plastics One Inc) attached to a 2 μl Hamilton syringe and expelling 0.5 μl at the same coordinates.
Neurons within the rostral ventromedial medulla (RVM) have been reported to project to the spinal or medullary dorsal horns to directly or indirectly enhance or diminish nociceptive traffic. As this descending modulatory circuit is “opioid-sensitive”, next the contribution of the RVM in the green LED-induced antinociceptive response was examined.

rats [4] = assay: HIV sensory neuropathy model, thermal hyperalgesia (Hargreaves test); format: in vivo, rat; conditions: intrathecal gp120, 300 ng
Protocol: as §1
(§2) Thermal hyperalgesia and mechanical allodynia are produced by intrathecal administration of the human immunodeficiency virus-1 (HIV-1) envelope glycoprotein, gp120 [60]. Seven days after implantation of an intrathecal catheter, baseline behavioral measurements were obtained and then rats were randomly assigned to two groups. On days 10 and 13, one group of rats were injected i.t. with 300 ng gp120 in a final volume of 20 µl in 0.9% saline while the other group were injected in a similar fashion with 0.9% saline.

rats [5] = assay: HIV sensory neuropathy model, mechanical allodynia (von Frey test); format: in vivo, rat; conditions: intrathecal gp120, 300 ng, compared to pre-gp120 baseline
Protocol: The assessment of tactile allodynia (i.e., a decreased threshold to paw withdrawal after probing with normally innocuous mechanical stimuli) consisted of testing the withdrawal threshold of the paw in response to probing with a series of calibrated fine (von Frey) filaments. Each filament was applied perpendicularly to the plantar surface of the paw of rats held in suspended wire mesh cages. Withdrawal threshold was determined by sequentially increasing and decreasing the stimulus strength (the “up and down” method), and data were analyzed with the nonparametric method of Dixon, as described by Chaplan et al and expressed as the mean withdrawal threshold.
as §2

[6] = cannabinoid receptor antagonists, systemic (i.p.) 1 mg/kg, green LED eight hours daily for five days, 1 mg/kg
[7] = intrathecal (i.t.), 20 μg, green LED eight hours daily for five days, PWL 20-30 minutes after antagonist
[8] = alpha- and beta-adrenergic receptor antagonists, i.p. (doses in Table 1), green LED exposed rats

Cc1c(C(=O)NN2CCCCC2)nn(-c2ccc(Cl)cc2Cl)c1-c1ccc(I)cc1 [AM251]
effect on green LED-induced antinociception (paw withdrawal latency) [1, 6]: reversed the green LED-induced antinociception; also recorded: reversed green LED-induced thermal analgesia

COc1ccc(C(=O)c2c(C)n(CCN3CCOCC3)c3cc(I)ccc23)cc1 [AM630]
effect on green LED-induced antinociception (paw withdrawal latency) [1, 6]: unaffected

CC(=O)OCOC(=O)CN(CC(=O)OCOC(C)=O)c1ccc(C)cc1OCCOc1cc2cc(-c3ncc(C(=O)OCOC(C)=O)o3)oc2cc1N(CC(=O)OCOC(C)=O)CC(=O)OCOC(C)=O [Fura-2AM]
Kd [2]: 25 µM

C=CCN1CC[C@]23c4c5ccc(O)c4O[C@H]2C(=O)CC[C@@]3(O)[C@H]1C5 [Naloxone]
effect on green LED-induced antinociception (paw withdrawal latency) [1, 7]: reversed, to baseline levels
effect on green LED-induced antinociception (paw withdrawal latency) ([1]; intrathecal (i.t.), 20 μg, green LED eight hours daily for five days, PWL 20-30 minutes after antagonist, listed as naloxone): reversed green LED-induced thermal analgesia
effect on green LED-induced antinociception (paw withdrawal latency) ([1]; naloxone systemic (printed subcutaneous / 20 mg/kg i.p.), green LED eight hours daily for five days, PWL 20-30 minutes after antagonist, 20 mg/kg): reversed, to baseline levels
effect on green LED-induced antinociception (paw withdrawal latency) ([1]; naloxone systemic (printed subcutaneous / 20 mg/kg i.p.), green LED eight hours daily for five days, PWL 20-30 minutes after antagonist, listed as naloxone, 20 mg/kg): reversed green LED-induced thermal analgesia

CC(COc1ccccc1)N(CCCl)Cc1ccccc1 (centres unmarked) [Phenoxybenzamine]
effect on green LED-induced antinociception (paw withdrawal latency) [1, 8]: failed to prevent or reverse the antinociceptive effect of green LED; also recorded: failed to reverse green LED-induced thermal analgesia

Cc1ccc(N(CC2=NCCN2)c2cccc(O)c2)cc1 [Phentolamine]
effect on green LED-induced antinociception (paw withdrawal latency) [1, 8]: failed to prevent or reverse the antinociceptive effect of green LED; also recorded: failed to reverse green LED-induced thermal analgesia

CCN(CC)CC(=O)Nc1c(C)cccc1C [lidocaine]
effect on green LED-induced antinociception (paw withdrawal latency) [3]: prevented the subsequent development of antinociception; also recorded: reversed green LED-induced thermal analgesia

CN1CC[C@]23c4c5ccc(O)c4O[C@H]2[C@@H](O)C=C[C@H]3[C@H]1C5 [morphine]
effect on green LED-induced antinociception (paw withdrawal latency) [1, 7]: reversed the antinociception

CC(C)NCC(O)COc1cccc2ccccc12 (centres unmarked) [propranolol]
effect on green LED-induced antinociception (paw withdrawal latency) [1, 8]: failed to prevent or reverse the antinociceptive effect of green LED; also recorded: failed to reverse green LED-induced thermal analgesia

gp120: viral envelope glycoprotein 120 of HIV-1, recombinant HIV-1 IIIB gp120, NIH AIDS Reagent Program
thermal hyperalgesia (paw withdrawal latency) (rats [4]): produced a thermal hyperalgesia
mechanical allodynia (paw withdrawal threshold) (rats [5]): lowered thresholds for paw withdrawals compared to baseline
